This experiment concerns CD8^+ T-cells in MMTV-PyMT tumors. As to the kind of experiment: Flow cytometry of the TME of MMTV-PyMT tumors after 36 h treatment. It counts as in vivo, mouse. The conditions noted are these: single-agent therapy. How it is done:
At 36 h post treatment initiation of treatment mice were sacrificed and tumors were harvested and analyzed. (A) Schematic representing the dosing strategy. (B) The fold change of tumor growth over 36 h post initiation of treatment. (C-G) Tumors were enzyme-digested to release single cells which were analyzed for their live (7AAD^-) stromal cell composition using flow cytometry (n=5 tumors per group) (C) and CD8^+ T-cells (D). Gating strategy (left panel) and quantitation of CD8^+ T-cell subsets based on CD62L and CD44 expressions (right panel; TCM; T central memory cells, TEM; T effector memory cells, Teff; T effectors cells) (E), and the ability of the tumoral CD8^+ T-cells to secrete IFNγ post ex vivo exposure to PMA/ionomycin treatment (F). […] Scale bar is 100 µm and white arrows indicate infiltrating CD8^+ T-cells. […] Image in panel (A) was created using BioRender. Bar charts show the mean, error bars SD, and the dots show individual data points from individual tumors and mice. Gemc.; gemcitabine. * P<0.05, ** P<0.01, *** P<0.001.
MN-MCA1 sarcoma cells were orthotopically implanted into syngeneic C57Bl/6 mice for tumors. A total of 2.5 x 10^5 cells in 100 μL RPMI were injected subcutaneously into female mice. […] When tumors became palpable, volumes were measured every 2-4 days using digital caliper measurements of the long (L) and short (S) dimensions of the tumor. […]

Consider `O=c1[nH]cc(F)c(=O)[nH]1` [5-FU, 5-fluorouracil], for which the “abundance of CD8^+ T-cells in the TME” value is recorded as “increase in the abundance of CD8^+ T-cells”.

The record behind these values is article PMC7618036, “An oral heme oxygenase inhibitor targets immunosuppressive perivascular macrophages in preclinical models of cancer” (Science translational medicine, 2025).
